Assay results published in patent publication US4820698A, “Antimicrobial agents and process for their manufacture” (The Procter & Gamble Company, priority 1986, dated 1989).
Values after ≈ are worked out from the molar mass of the structure shown. Where two headings read alike, the source gives them in different places.

Columns and labels:
Format in all cases: cell-based
[1] = system: S. Aureus (G+) ATCC 12715; assay: In vitro antibacterial activity, standard microdilution MIC assay; conditions: S. Aureus (G+) ATCC 12715, penicillin resistant
[2] = system: P. Aeruginosa (G-) ATCC 27853; assay: as above; conditions: P. Aeruginosa (G-) ATCC 27853, penicillin resistant
[3] = system: S. Aureus (G+) ATCC 25923; assay: as above
[4] = system: S. Aureus (G+) ATCC 27660; assay: as above; conditions: S. Aureus (G+) ATCC 27660, penicillin resistant
[5] = system: Clostridium (G+) perfringens ATCC 3624; assay: microbe, parasite or virus in culture
[6] = system: gram-positive microorganisms; assay: In vitro antibacterial activity (MIC), comparison with fosfomycin
[7] = system: Streptococcus (G+) mutans, clinical isolate (third listed); assay: In vitro antibacterial activity, standard microdilution MIC assay
[8] = system: Streptococcus (G+) mutans, clinical isolate (first listed); assay: as above
[9] = system: Streptococcus (G+) mutans, clinical isolate (second listed); assay: as above
[10] = system: Klebsiella (G-) Pneumoniae ATCC; assay: as above
Protocol: The in vitro antibacterial activity of several tetraalkyl ethenylidenebisphosphonates, fosfomycin and Penicillin G were tested against various gram-positive and gram-negative bacteria using the standard microdilution Minimum Inhibitory Concentration (MIC) assay as disclosed in Laboratory Procedures in Clinical Microbiology (John A. Washington, editor), 281-311 (1985), incorporated herein by reference.

[11] = Staphylococcus aureus, ATCC12715, read-out: MIC
[12] = Pseudomonas aeruginosa, ATCC27853, read-out: MIC
[13] = Staphylococcus aureus, ATCC25923, read-out: MIC
[14] = Staphylococcus aureus, ATCC27660, read-out: MIC

C[C@@H]1O[C@@H]1P(=O)(O)O [D, Fosfomycin, reference compound]
MIC [1, 11]: 72 µg/mL (≈ 522 µM) | MIC [2, 12]: 31 µg/mL (≈ 225 µM) | MIC [3, 13]: 56 µg/mL (≈ 406 µM) | MIC [4, 14]: 180 µg/mL (≈ 1300 µM)

C=C(P(=O)(OCCCC)OCCCC)P(=O)(OCCCC)OCCCC [C, Tetrabutyl ethenylidenebisphosphonate]
MIC [1, 11]: 6.5 µg/mL (≈ 15.8 µM) | MIC ([5]; Clostridium, ATCC3624): 2.1 µg/mL (≈ 5.09 µM) | antibacterial efficacy against gram-positive microorganisms compared with fosfomycin [6]: superior to fosfomycin | MIC [7]: 11 µg/mL (≈ 26.7 µM) | MIC [2, 12]: 25000 µg/mL (≈ 60600 µM) | MIC [3, 13]: 4.5 µg/mL (≈ 10.9 µM) | MIC [8]: 1.2 µg/mL (≈ 2.91 µM) | MIC [9]: 11 µg/mL (≈ 26.7 µM) | MIC [4, 14]: 6.5 µg/mL (≈ 15.8 µM)

C=C(P(=O)(OCC)OCC)P(=O)(OCC)OCC [B, Tetraethyl ethenylidenebisphosphonate]
MIC [1]: 180 µg/mL (≈ 600 µM) | MIC [5]: 52 µg/mL (≈ 173 µM) | MIC [2]: 25,000 μg/ml | MIC [3]: 110 µg/mL (≈ 366 µM) | MIC [4]: 160 µg/mL (≈ 533 µM)

CC1(C)S[C@@H]2[C@H](NC(=O)Cc3ccccc3)C(=O)N2[C@H]1C(=O)O [E, Penicillin G, reference compound]
MIC [1, 11]: 19000 µg/mL (≈ 56800 µM) | MIC [2, 12]: 24000 µg/mL (≈ 71800 µM) | MIC [3, 13]: 25 µg/mL (≈ 74.8 µM) | MIC [4, 14]: 25000 µg/mL (≈ 74800 µM)

C=C(P(=O)(OC)OC)P(=O)(OC)OC [A, Tetramethyl ethenylidenebisphosphonate]
MIC [1]: 1,200 μg/ml | MIC [2]: 6,300 μg/ml | MIC [10]: 405 µg/mL (≈ 1660 µM) | MIC [3]: 430 µg/mL (≈ 1760 µM) | MIC [4]: 1,200 μg/ml
